Source: PubChem BioAssay (NCI)
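Interpolation was linear, between the two tested concentrations surrounding the appropriate level; five concentrations were tested over 48 hours in 96-well plates. GI50 = concentration required for 50% inhibition of growth. TGI denotes the concentration required for complete inhibition of growth.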 Where a SMILES comes first, the peptide text is derived from it. [ ]: non-standard residue; d: D form. ξ: configuration not given here. ξLac(3-iPr) = CC(C)CC(O)C(=O)O; NMeV = CN[CH](C(=O)O)C(C)C; NMeA = CN[CH](C)C(=O)O; βAla = NCCC(=O)O

Legend:
Assay in all cases: NCI anticancer screen, dose series, 48 h
[1] = tested on: UACC-62 melanoma
[2] = tested on: SF-268 CNS
[3] = tested on: HOP-62 NSCLC
[4] = tested on: A549 NSCLC
[5] = tested on: U251 CNS
[6] = tested on: UO-31 renal
[7] = tested on: MOLT-4 leukemia
[8] = tested on: TK-10 renal
[9] = tested on: SK-MEL-28 melanoma
[10] = tested on: IGROV1 ovarian
[11] = tested on: ACHN renal

| Compound | TGI [1] | TGI [2] | TGI [3] | TGI [4] | TGI [5] | TGI [6] | TGI [7] | TGI [8] | TGI [9] | TGI [10] | TGI [11] | GI50 [1] | GI50 [2] | GI50 [3] | GI50 [4] | GI50 [7] | GI50 [8] | GI50 [11] | GI50 [9] | GI50 [10] |
| --- | --- | --- | --- | --- | --- | --- | --- | --- | --- | --- | --- | --- | --- | --- | --- | --- | --- | --- | --- | --- |
| O=C(c1ccccc1)C1C(c2ccccc2)N1S(=O)(=O)c1ccccc1 (stereo unspecified) | > 100 µM | > 100 µM | > 100 µM | > 100 µM | > 100 µM | > 100 µM | > 100 µM | > 100 µM | > 100 µM | > 100 µM |  |  |  |  |  |  |  |  |  |  |
| Cc1ccc2c(ccc(/C=C\c3cc(C)c4cccnc4c3O)[n+]2C)c1 | 15 µM | 47.6 µM | 27.6 µM | 40.9 µM | 68.7 µM | 66 µM | 28.4 µM |  |  | > 100 µM | 20.4 µM |  |  |  |  |  |  |  |  |  |
| COc1cc(C(=O)CC2OC(=O)C(Cl)=C2Cl)ccc1Cl (stereo unspecified) | > 100 µM | > 100 µM | > 100 µM | > 100 µM | > 100 µM | > 100 µM | > 100 µM | > 100 µM | > 100 µM | > 100 µM | > 100 µM |  |  |  |  |  |  |  |  |  |
| C[N+](C)(C)c1cc2c(nn1)Nc1ccccc1S2 | 36.9 µM | > 100 µM | 69.8 µM | > 100 µM | 63.9 µM | 41.9 µM | 44.2 µM | > 100 µM | 53.1 µM | 81.2 µM | 69.6 µM |  |  |  |  |  |  |  |  |  |
| C[C@]12CC[C@@H]3c4ccc(O)cc4CC[C@H]3[C@@H]1CC[C@@H]2OC(=O)CCc1ccccc1 | 28.8 µM | 35.8 µM | 55.9 µM | 52.9 µM | 38.1 µM | 33.8 µM | 40.3 µM | 33.9 µM | 39.2 µM | 43.9 µM | 35.5 µM |  |  |  |  |  |  |  |  |  |
| CC1(C)N=C(N)N=C(N)N1c1cccc(C(=O)Nc2ccc(S(=O)(=O)F)cc2)c1 | > 100 µM | > 100 µM | > 100 µM | > 100 µM | > 100 µM | > 100 µM | > 100 µM | > 100 µM | > 100 µM | > 100 µM | > 100 µM |  |  |  |  |  |  |  |  |  |
| Cc1nc2[nH]ncn2c(=O)c1CCCl | > 10 µM | > 10 µM | > 10 µM | > 10 µM | > 10 µM | > 10 µM | > 10 µM | > 10 µM | > 10 µM | > 10 µM | > 10 µM |  |  |  |  |  |  |  |  |  |
| CCC(C)C1NC(=O)C2CCCN2C(=O)C(CC(C)C)OC(=O)CCNC(=O)C(C)N(C)C(=O)C(C(C)C)N(C)C1=O (stereo unspecified) (cyclo([ξLac(3-iPr)]PI[NMeV][NMeA][βAla]); configuration not given here) | 5.06 µM | 80.9 µM | 17.7 µM | > 100 µM | > 100 µM | > 42 µM | 21 µM | > 100 µM | > 100 µM | > 100 µM | > 83.4 µM |  |  |  |  |  |  |  |  |  |
| O=C1C=CC(=O)c2c(O)c(Br)c(Br)c(O)c21 | 26.1 µM | 38.3 µM | 24.8 µM | 41.5 µM | 33.7 µM | 6.65 µM | 0.549 µM | 6.12 µM | 4.91 µM | 29.7 µM | 5.99 µM |  |  |  |  |  |  |  |  |  |
| N#C/C(=C\c1ccc(Br)cc1)n1nnc2cc(Cl)c(Cl)cc21 | 3.63 µM | > 100 µM | > 100 µM | > 100 µM |  |  | > 100 µM | 6.71 µM | 3.81 µM | 4.53 µM | 3.24 µM | 1.68 µM | 3.84 µM | 3.26 µM | 3.1 µM | 2.51 µM | 3.32 µM | 1.73 µM | 1.84 µM | 2 µM |
| Clc1ccc(C[P+]2(c3ccccc3)CCCCC2)cc1 | > 100 µM |  | > 100 µM | > 100 µM | > 100 µM | > 100 µM | > 100 µM | > 100 µM | > 100 µM | > 100 µM | > 100 µM |  |  |  |  |  |  |  |  |  |
| O=C1c2ccccc2C(=O)c2c(Nc3cc4c5c(ccc6c7ccc8c9c(cc(Nc%10cccc%11c%10C(=O)c%10ccccc%10C%11=O)c(c3c56)c97)-c3ccccc3C8=O)C(=O)c3ccccc3-4)cccc21 | > 100 µM | 75.2 µM | 44.6 µM | > 100 µM | 55 µM | > 100 µM | > 100 µM | 96.1 µM | > 100 µM | > 100 µM | > 100 µM |  |  |  |  |  |  |  |  |  |
| CCN(CC)c1ccc2nc3ccc(N=Nc4c(O)ccc5ccccc45)cc3[n+](-c3ccccc3)c2c1 | > 100 µM | > 100 µM | > 100 µM | > 100 µM | > 100 µM | > 100 µM | > 100 µM | > 100 µM | > 100 µM | > 100 µM | > 100 µM |  |  |  |  |  |  |  |  |  |
